test: HILIC, Merck SeQuant ZIC-HILIC, 100 × 2.1 mm, 3.5 µm, 25 °C, 0.3 mL/min, estimated dead time 0.73 min; A: water + 0.1% formic acid, pH 3; B: acetonitrile + 0.1% formic acid, pH 3; gradient (min/%B) 0/95 1.5/95 13.5/40 15.5/40 29.7/25 33.5/25 34.5/95 41.5/95; details: stereoisomer not certain

Row | Structure (SMILES) | LC retention time [min]
1 | Nc1nc2c(ncn2C2OC(COP(=O)(O)O)C(O)C2O)c(=O)[nH]1 (stereo not drawn) [Guanosine mono-phosphate] | 8.15
2 | O=S(=O)(O)CCN1CCN(CCO)CC1 [HEPES] | 10.7
3 | OCCOCCOCCOCCOCCOCCO [Hexaethylene glycol] | 1.69
4 | O=C(O)CNC(=O)c1ccccc1 [Hippuric acid] | 1.36
5 | NCCc1cnc[nH]1 [Histamine] | 14.4
6 | NC(CCS)C(=O)O (stereo not drawn) [Homocysteine] | 7.41
7 | NC(CCO)C(=O)O (stereo not drawn) [Homoserine] | 8.29
8 | C[N+]1(C)CCCCC1C(=O)[O-] (stereo not drawn) [Homostachydrine] | 6.93
9 | NCCc1cc(O)c(O)cc1O [Hydroxydopamine] | 9.19
10 | NCCS(=O)O [Hypotaurine] | 7.87
11 | O=C(O)c1c[nH]c2ccccc12 [Indole-3-carboxylic acid] | 1.46
12 | O=C(O)c1ccncc1 [Isonicotinic acid] | 2.25
13 | Cn1cncc1CC(NC(=O)CCN)C(=O)O [L-Anserine] | 12.6
14 | NC(N)=NCCC[C@H](N)C(=O)O [L-Arginine] | 12.2
15 | CC[C@H](C)[C@H](N)C(=O)O [L-Isoleucine] | 6.76
16 | CCNC(=O)CC[C@H](N)C(=O)O [L-Theanine] | 7.58
17 | CS(=O)(=O)CCC(N)C(=O)O [L-methionine sulfone] | 7.89
18 | NCCCCC(N)C(=O)O (stereo not drawn) [Lysine] | 12.5
19 | O=S(=O)(O)CCN1CCOCC1 [MES] | 6.42
20 | OCC(O)C(O)C(O)C(O)CO (stereo not drawn) [Mannitol] | 6.57
21 | CNCC(O)c1ccc(O)c(OC)c1 (stereo not drawn) [Metanephrine] | 7.06
22 | CN(C)C(=N)N=C(N)N [Metformin] | 8.84
23 | CS(=O)CCC(N)C(=O)O (stereo not drawn) [Methionine sulfoxide] | 8.59
24 | COC(=O)c1nccnc1N [Methyl 3-aminopyrazine-2-carboxylic acid] | 1.05
25 | COC(=O)c1cccnc1 [Methyl nicotinic acid] | 1.16
26 | Cc1ccccc1C(=O)NCC(=O)O [Methylhippurate] | 1.05

Row | Structure (SMILES) | LC retention time [min]
27 | COC(=O)c1ccccn1 [Methylpicolinate] | 1.06
28 | CSCC1OC(n2cnc3c(N)ncnc32)C(O)C1O (stereo not drawn) [Methylthioadenosine] | 4.81
29 | CC(=O)NCCCC[C@H]([NH3+])C(=O)[O-] [N6-Acetyl-L-lysine] | 7.59
30 | CC(=O)NC(Cc1cnc[nH]1)C(=O)O (stereo not drawn) [N,N-Acetylhistidine] | 8.16
31 | CC(=O)N[C@H]1C(O)O[C@H](CO)[C@@H](O)[C@@H]1O (stereo partly drawn) [N-Acetyl-D-glucosamine] | 6.24
32 | CC(=O)N[C@@H](CC(=O)O)C(=O)O [N-Acetyl-L-aspartic acid] | 4.31
33 | CC(=O)NC(CCCN)C(=O)O (stereo not drawn) [N-Acetyl-ornithine] | 8.65
34 | CC(=O)NC(CCC[NH+]=C(N)N)C(=O)[O-] (stereo not drawn) [N-Acetylarginine] | 8.35
35 | CC(=O)NC1C(O)CC(O)(C(=O)O)OC1C(O)C(O)CO (stereo not drawn) [N-Acetylneuraminic acid] | 7.06
36 | CC(=O)NC(CCCC[NH3+])C(=O)[O-] (stereo not drawn) [N-Alpha-acetyllysine] | 8.42
37 | O=C(O)CNC(=O)C=Cc1ccccc1 [N-Cinnamoylglycine] | 1.34
38 | CN1CCC[C@H]1C(=O)O [N-Methyl-L-proline] | 7.26
39 | CNC(=O)c1cccnc1 [N-Methylnicotinamide] | 2.26
40 | CC(=O)NCCc1c[nH]c2ccc(O)cc12 [N-acetyl-5-hydroxytryptamine] | 2.03
41 | CC(=O)NC(CCC(=O)O)C(=O)O (stereo not drawn) [N-acetylglutamate] | 3.71
42 | CC(=O)NC(Cc1ccccc1)C(=O)O (stereo not drawn) [N-acetylphenylalanine] | 1.58
43 | CC(=O)NCCCCN [N-acetylputrescine] | 8.56
44 | CSCCC(NC=O)C(=O)O (stereo not drawn) [N-formylmethionine] | 1.85
45 | CN[C@H](CC(=O)O)C(=O)O [N-methyl-D-aspartic acid] | 7.39
46 | CNCCc1cnc[nH]1 [Na-methylhistamine] | 15.2
47 | NC(Cc1ccc(O)c([N+](=O)[O-])c1)C(=O)O (stereo not drawn) [Nitrotyrosine] | 6.1
48 | NCC(O)c1ccc(O)c(O)c1 (stereo not drawn) [Noradrenaline] | 9.31
49 | CCCC(C(=O)[O-])[N+](C)(C)C (stereo not drawn) [Norvaline betaine] | 6.15
50 | NCC(O)c1ccc(O)cc1 (stereo not drawn) [Octopamine] | 7.57
51 | CCC(NC(=O)CCC(N)C(=O)O)C(=O)NCC(=O)O (stereo not drawn) [Ophthalmic acid] | 7.85
52 | NCCCC(N)C(=O)O (stereo not drawn) [Ornithine] | 12.5

Row | Structure (SMILES) | LC retention time [min]
53 | O=S(=O)(O)CCN1CCN(CCS(=O)(=O)O)CC1 [PIPES] | 9.12
54 | CC(C)(CO)C(O)C(=O)NCCC(=O)O (stereo not drawn) [Pantothenic acid] | 2.31
55 | CC(C)CC(NC(=O)C(C)NC(=O)C(N)Cc1ccccc1)C(=O)O (stereo not drawn) [Phe-Ala-Leu] | 5.8
56 | CC(NC(=O)C(N)Cc1ccccc1)C(=O)NC(CO)C(=O)O (stereo not drawn) [Phe-Ala-Ser] | 7.49
57 | NC(=O)CCC(NC(=O)Cc1ccccc1)C(=O)O (stereo not drawn) [Phenylacetylglutamine] | 2.63
58 | C[N+](C)(C)[C@@H](Cc1ccccc1)C(=O)[O-] [Phenylalanine betaine] | 5.5
59 | NC(C(=O)O)c1ccccc1 (stereo not drawn) [Phenylglycine] | 6.41
60 | CN(CC(=O)O)C(N)=NP(=O)(O)O [Phosphocreatine] | 7.7
61 | C=C(OP(=O)(O)O)C(=O)[O-] [Phosphoenol pyruvate] | 6.22
62 | O=C(O)c1ccccc1C(=O)O [Phthalic acid] | 2.12
63 | O=C(C=CC=Cc1ccc2c(c1)OCO2)N1CCCCC1 [Piperine] | 0.94
64 | O=C(NCC(=O)N1CCCC1C(=O)O)C1CCCN1 (stereo not drawn) [Proline-glycine-proline] | 7.66
65 | O=C(O)CNC(=O)C1CCCN1 (stereo not drawn) [Proline-glycine] | 7.71
66 | O=C(O)C1CC(O)CN1C(=O)C1CCCN1 (stereo not drawn) [Proline-hydroxyproline] | 8.4
67 | CCC(=O)OC(CC(=O)[O-])C[N+](C)(C)C (stereo not drawn) [Propionylcarnitine] | 4.5
68 | CN1CCCN=C1C=Cc1cccs1 [Pyrantel] | 2.3
69 | Cc1ncc(CO)c(C=O)c1O [Pyridoxal] | 4.94
70 | Cc1ncc(CO)c(CN)c1O [Pyridoxamine] | 13.1
71 | Cc1ncc(CO)c(CO)c1O [Pyridoxine] | 7.08
72 | O=C(O)CNC(=O)C1CCC(=O)N1 (stereo not drawn) [Pyroglutamylglycine] | 4.32
73 | C1CCNC1 [Pyrrolidine] | 7.71
74 | O=C(O)c1ccc2ccccc2n1 [Quinaldic acid] | 1.24
75 | OCC1OC(O)C(O)C1O (stereo not drawn) [Ribose] | 5
76 | Nc1ncnc2c1ncn2C1OC(CSCCC([NH3+])C(=O)[O-])C(O)C1O (stereo not drawn) [S-adenosylhomocysteine] | 10.1
77 | NC(CCCCNC(CCC(=O)O)C(=O)O)C(=O)O (stereo not drawn) [Saccharopine] | 10.1
78 | CC(C)(C)NCC(O)c1ccc(O)c(CO)c1 (stereo not drawn) [Salbutamol] | 6.57

Row | Structure (SMILES) | LC retention time [min]
79 | CNCC(=O)O [Sarcosine] | 7.67
80 | CC(O)C(=O)C1=Nc2c(nc(N)[nH]c2=O)NC1 (stereo not drawn) [Sepiapterin] | 4.63
81 | NCCc1c[nH]c2ccc(O)cc12 [Serotonin] | 7.73
82 | OCC1OC(OC2(CO)OC(CO)C(O)C2O)C(O)C(O)C1O (stereo not drawn) [Sucrose] | 7.32
83 | NCCS(=O)(=O)O [Taurine] | 7.44
84 | CC(CCC(=O)NCCS(=O)(=O)O)C1CCC2C3C(O)CC4CC(O)CCC4(C)C3CC(O)C12C (stereo not drawn) [Taurocholic acid] | 4.75
85 | O=c1cc[nH]c(=S)[nH]1 [Thiouracil] | 1.93
86 | Cc1cn(C2CC(O)C(CO)O2)c(=O)[nH]c1=O (stereo not drawn) [Thymidine] | 2.58
87 | C[n+]1cccc(C(=O)[O-])c1 [Trigonelline] | 7.26
88 | C[N+](C)(C)[O-] [Trimethylamine N-oxide] | 6.67
89 | NCCc1c[nH]c2ccccc12 [Tryptamine] | 6.1
90 | C[N+](C)(C)C(Cc1c[nH]c2ccccc12)C(=O)[O-] (stereo not drawn) [Tryptophan betaine] | 5.65
91 | NCCc1ccc(O)cc1 [Tyramine] | 6.81
92 | O=c1ccn(C2OC(COP(=O)(O)O)C(O)C2O)c(=O)[nH]1 (stereo not drawn) [Uridine mono-phosphate] | 6.99
93 | O=c1ccn(C2OC(CO)C(O)C2O)c(=O)[nH]1 (stereo not drawn) [Uridine] | 4.98
94 | CC(C)C(C(=O)O)[N+](C)(C)C (stereo not drawn) [Valine betaine] | 5.99
95 | O=c1[nH]c(=O)c2ncn(C3OC(CO)C(O)C3O)c2[nH]1 (stereo not drawn) [Xanthosine] | 5.36
96 | OC1COC(O)C(O)C1O (stereo not drawn) [Xylose] | 6.03
97 | NC(CCC(=O)O)C(=O)NC(Cc1ccc(O)cc1)C(=O)O (stereo not drawn) [a-glutamyl-tyrosine] | 7.57
98 | CC(CCC(=O)O)C1CCC2C3C(O)CC4CC(O)CCC4(C)C3CC(O)C12C (stereo not drawn) [cholic acid] | 1.96
99 | O=C(O)C=C(CC(=O)O)C(=O)O [cis-aconitate] | 4.23
100 | O=C(O)C=Cc1cnc[nH]1 [cis-urocanic acid] | 5
101 | Nc1cccc(C(=O)O)c1 [m-Aminobenzoic acid] | 2.09
102 | O=C(O)CNC(=O)c1ccccc1O [o-Hydroxyhippuric acid] | 1.44
103 | Nc1ccc(C(=O)O)cc1 [p-Aminobenzoic acid] | 1.53

From the RepoRT retention time repository (doi:10.1021/acs.analchem.7b00925)
